We go through 13 molecules from patent publication US20210015098A1, “MOLECULES HAVING PESTICIDAL UTILITY, AND INTERMEDIATES, COMPOSITIONS, AND PROCESSES, RELATED THERETO” (DOW AGROSCIENCES LLC, priority 2018, published 2021).

Holding throughout (type): in vivo
In data set [1] the test system is Beet Armyworm (Spodoptera exigua, LAPHEG). The data set can be described thus: Bioassays on Beet Armyworm (BAW), 128-well diet tray assay. As to conditions: for pest or weed control at 50 µg/cm2: Beet Armyworm, Table ABC Biological Results, read-out: BAW (rating). In short, it runs like this:
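One to five second-instar larvae per well on artificial diet surface-treated with 50 μg/cm^2 test molecule (applied in 90:10 acetone-water, dried), eight wells per compound. Trays held vented at 25° C., 14:10 light-dark for five to seven days; percent mortality averaged over the eight wells.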

Data set [2] deals with Cabbage Looper (Trichoplusia ni, TRIPNI). Nature of the data set: Bioassays on Cabbage Looper (CL), 128-well diet tray assay. As to conditions: for pest or weed control at 50 µg/cm2: Cabbage Looper, Table ABC Biological Results, read-out: CL (rating). The method, boiled down:
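Test molecule was dissolved in 90:10 acetone-water, applied to artificial diet at 50 μg/cm^2 and allowed to dry. Second-instar larvae were then added, one to five per well, and trays held at 25° C for five to seven days before mortality was scored and averaged.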

For data set [3], the system named is Green Peach Aphid (Myzus persicae, MYZUPE). Nature of the data set: Bioassays on Green Peach Aphid (GPA), foliar spray on cabbage seedlings. As to conditions: for GPA (rating): Green Peach Aphid, Table ABC Biological Results. The procedure: Certain molecules disclosed in this document were tested against GPA using procedures described in the following example. In the reporting of the results, the “GPA & YFM Rating Table” was used (See Table Section).
Cabbage seedlings grown in 3-inch pots, with 2-3 small (3-5 cm) true leaves, were used as test substrate. The seedlings were infested with 20-50 GPA (wingless adult and nymph stages) one day prior to chemical application. Four pots with individual seedlings were used for each treatment. Test molecules (2 mg) were dissolved in 2 mL of acetone/methanol (1:1) solvent, forming stock solutions of 1000 ppm test molecule. The stock solutions were diluted 5× with 0.025% Tween 20 in water to obtain the solution at 200 ppm test molecule. A hand-held aspirator-type sprayer was used for spraying a solution to both sides of […] leaves until runoff. Reference plants (solvent check) were sprayed with the diluent only containing 20% by volume of acetone/methanol (1:1) solvent. Treated plants were held in a holding room for three days at approximately 25° C. and ambient relative humidity (RH) prior to grading. Evaluation was conducted by counting the number of live aphids per plant under a microscope. Percent control was measured using Abbott's correction formula (W. S. Abbott, “A Method of Computing the Effectiveness of an Insecticide” J. Econ. Entomol. 18 (1925), pp. 265-267) as follows. Corrected % Control=100*(X−Y)/X where X=No. of live aphids on solvent check plants and Y=No. of live aphids on treated plants. The results are indicated in the table entitled “Table ABC: Biological Results” (See Table Section).

The subject of data set [4] is Yellow Fever Mosquito (Aedes aegypti, AEDSAE). The settings on record: for YFM (rating): Yellow Fever Mosquito, Table ABC Biological Results. As for the experimental part: Certain molecules disclosed in this document were tested against YFM using procedures described in the following paragraph. In the reporting of the results, the “GPA & YFM Rating Table” was used (See Table Section).
Master plates containing 400 μg of a molecule dissolved in 100 μL of dimethyl sulfoxide (DMSO) (equivalent to a 4000 ppm solution) are used. A master plate of assembled molecules contains 15 μL per well. To this plate, 135 μL of a 90:10 water/acetone mixture is added to each well. A robot (Biomek® NXP Laboratory Automation Workstation) is programmed to dispense 15 μL aspirations from the master plate into an empty 96-well shallow plate (“daughter” plate). There are 6 reps (“daughter” plates) created per master. The created “daughter” plates are then immediately infested with YFM larvae.
The day before plates are to be treated, mosquito eggs are placed in Millipore water containing liver powder to begin hatching (4 g into 400 mL). After the “daughter” plates are created using the robot, they are infested with 220 μL of the liver powder/larval mosquito mixture (about 1 day-old larvae). After plates are infested with mosquito larvae, a non-evaporative lid is used to cover the plate to reduce drying. Plates are held at room temperature for 3 days prior to grading. After 3 days, each well is observed and scored based on mortality. The results are indicated in the table entitled “Table ABC: Biological Results” (See Table Section).

In general, mortality refers to the percentage killed. For the molecule `Nc1c(F)ccc(NC(=O)c2cc(NC(=O)[C@H]3[C@H](c4cccc(C(F)(F)F)c4)C3(Cl)Cl)ccc2Cl)c1F` [DP6, N-(3-Amino-2,4-difluorophenyl)-2-chloro-5-((1R,3R)-2,2-dichloro-3-(3-(trifluoromethyl)phenyl)cyclopropane-1-carboxamido)benzamide], the mortality at 50 µg/cm2 in data set [1] (168 h, 50 μg/cm^2 on artificial diet, second instar larvae, 25° C., five to seven days, read-out: BAW % Control (or Mortality) rating) is 50 to 100%; in data set [2] (168 h, 50 μg/cm^2 on artificial diet, second instar larvae, 25° C., five to seven days, read-out: CL % Control (or Mortality) rating), 50 to 100%. The mortality at 200 ppm in data set [3] (Myzus persicae, 72 h, 200 ppm foliar spray on cabbage seedlings, three days, Abbott corrected % control, read-out: GPA % Control (or Mortality) rating) lay in the range of 80 to 100%. Also, the “YFM % Control (or Mortality) rating” value in data set [4] (about 1 day-old larvae, 96-well plate, room temperature, 3 days) is “B (More than 0-Less than 80)”.

On to `C=CCSCC(=O)Nc1c(F)ccc(NC(=O)c2cc(NC(=O)[C@H]3[C@H](c4ccc(F)c(C(F)(F)F)c4)C3(Cl)Cl)ccc2Cl)c1F` [F3, N-(3-(2-(Allylthio)acetamido)-2,4-difluorophenyl)-2-chloro-5-((1R,3R)-2,2-dichloro-3-(4-fluoro-3-(trifluoromethyl)phenyl)cyclopropane-1-carboxamido)benzamide], for which the pest or weed control at 50 µg/cm2 in data set [1] and in data set [2] was 50 to 100% each time. Moreover, the “GPA (rating)” value in data set [3] was “B (More than 0-Less than 80)”.

Turning to `CC(SC(F)(F)F)C(=O)Nc1c(F)ccc(NC(=O)c2cc(NC(=O)[C@H]3[C@H](c4ccc(F)c(C(F)(F)F)c4)C3(Cl)Cl)ccc2Cl)c1F` (stereo partly drawn) [F16, 2-Chloro-5-((1R,3R)-2,2-dichloro-3-(4-fluoro-3-(trifluoromethyl)phenyl)cyclopropane-1-carboxamido)-N-(2,4-difluoro-3-(2-((trifluoromethyl)thio)propanamido)phenyl)benzamide], the pest or weed control at 50 µg/cm2 in data set [1] and in data set [2] was 50 to 100% each time. In addition, in data set [4], the “YFM (rating)” value was “A (80-100)”.

Take `O=C(CSC(F)(F)F)Nc1c(F)ccc(NC(=O)c2cc(NC(=O)[C@H]3[C@H](c4ccc(F)c(C(F)(F)F)c4)C3(Cl)Cl)ccc2Cl)c1F` [F17, 2-Chloro-5-((1R,3R)-2,2-dichloro-3-(4-fluoro-3-(trifluoromethyl)phenyl)cyclopropane-1-carboxamido)-N-(2,4-difluoro-3-(2-((trifluoromethyl)thio)acetamido)phenyl)benzamide]: the pest or weed control at 50 µg/cm2 in data set [1] and in data set [2] was 50 to 100% throughout. The “YFM (rating)” value in data set [4] was “A (80-100)”.

As for `CCSC(C)C(=O)Nc1c(F)ccc(NC(=O)c2cc(NC(=O)[C@H]3[C@H](c4ccc(F)c(C(F)(F)F)c4)C3(Cl)Cl)ccc2Cl)c1F` (stereo partly drawn) [F18, 2-Chloro-5-((1R,3R)-2,2-dichloro-3-(4-fluoro-3-(trifluoromethyl)phenyl)cyclopropane-1-carboxamido)-N-(3-(2-(ethylthio)propanamido)-2,4-difluorophenyl)benzamide], the pest or weed control at 50 µg/cm2 in data set [1] and in data set [2] was 50 to 100% in each case. For the same molecule, in data set [4], the “YFM (rating)” value was “A (80-100)”.

On to `CCSCC(=O)Nc1c(F)ccc(NC(=O)c2cc(NC(=O)[C@H]3[C@H](c4ccc(F)c(C(F)(F)F)c4)C3(Cl)Cl)ccc2Cl)c1F` [F19, 2-Chloro-5-((1R,3R)-2,2-dichloro-3-(4-fluoro-3-(trifluoromethyl)phenyl)cyclopropane-1-carboxamido)-N-(3-(2-(ethylthio)acetamido)-2,4-difluorophenyl)benzamide], for which the pest or weed control at 50 µg/cm2 in data set [1] and in data set [2] was 50 to 100% in each case. Also, the “YFM (rating)” value in data set [4] was “A (80-100)”.

Take `O=C(CCSCCC(F)(F)F)Nc1c(F)ccc(NC(=O)c2cc(NC(=O)[C@H]3[C@H](c4ccc(F)c(C(F)(F)F)c4)C3(Cl)Cl)ccc2Cl)c1F` [F21, 2-Chloro-5-((1R,3R)-2,2-dichloro-3-(4-fluoro-3-(trifluoromethyl)phenyl)cyclopropane-1-carboxamido)-N-(2,4-difluoro-3-(3-((3,3,3-trifluoropropyl)thio)propanamido)phenyl)benzamide]: the pest or weed control at 50 µg/cm2 in data set [1] and in data set [2] was 50 to 100% throughout. In addition, the “YFM (rating)” value in data set [4] is listed as “A (80-100)”.

Consider `CCSCCC(=O)Nc1c(F)ccc(NC(=O)c2cc(NC(=O)[C@H]3[C@H](c4ccc(F)c(C(F)(F)F)c4)C3(Cl)Cl)ccc2Cl)c1F` [F23, 2-Chloro-5-((1R,3R)-2,2-dichloro-3-(4-fluoro-3-(trifluoromethyl)phenyl)cyclopropane-1-carboxamido)-N-(3-(3-(ethylthio)propanamido)-2,4-difluorophenyl)benzamide], for which the pest or weed control at 50 µg/cm2 in data set [1] and in data set [2] was 50 to 100% each time. In data set [4], the “YFM (rating)” value is “A (80-100)”.

In the case of `CSCCC(=O)Nc1c(F)ccc(NC(=O)c2cc(NC(=O)[C@H]3[C@H](c4ccc(F)c(C(F)(F)F)c4)C3(Cl)Cl)ccc2Cl)c1F` [F24, 2-Chloro-5-((1R,3R)-2,2-dichloro-3-(4-fluoro-3-(trifluoromethyl)phenyl)cyclopropane-1-carboxamido)-N-(2,4-difluoro-3-(3-(methylthio)propanamido)phenyl)benzamide], the pest or weed control at 50 µg/cm2 in data set [1] and in data set [2] was 50 to 100% each time. Also, the “YFM (rating)” value in data set [4] is listed as “A (80-100)”.

Take `CSCCCC(=O)Nc1c(F)ccc(NC(=O)c2cc(NC(=O)[C@H]3[C@H](c4ccc(F)c(C(F)(F)F)c4)C3(Cl)Cl)ccc2Cl)c1F` [F25, 2-Chloro-5-((1R,3R)-2,2-dichloro-3-(4-fluoro-3-(trifluoromethyl)phenyl)cyclopropane-1-carboxamido)-N-(2,4-difluoro-3-(4-(methylthio)butanamido)phenyl)benzamide]: the pest or weed control at 50 µg/cm2 in data set [1] and in data set [2] was 50 to 100% each time. The “YFM (rating)” value in data set [4] is “A (80-100)”.

For the molecule `O=C(C[S+]([O-])CC(F)(F)F)Nc1c(F)ccc(NC(=O)c2cc(NC(=O)[C@H]3[C@H](c4ccc(F)c(C(F)(F)F)c4)C3(Cl)Cl)ccc2Cl)c1F` (stereo partly drawn) [F32, 2-Chloro-5-((1R,3R)-2,2-dichloro-3-(4-fluoro-3-(trifluoromethyl)phenyl)cyclopropane-1-carboxamido)-N-(2,4-difluoro-3-(2-((2,2,2-trifluoroethyl)sulfinyl)acetamido)phenyl)benzamide], the pest or weed control at 50 µg/cm2 in data set [1] and in data set [2] was 50 to 100% throughout. Besides, in data set [4], the “YFM (rating)” value is “A (80-100)”.

As for `CC[S+]([O-])C(C)C(=O)Nc1c(F)ccc(NC(=O)c2cc(NC(=O)[C@H]3[C@H](c4ccc(F)c(C(F)(F)F)c4)C3(Cl)Cl)ccc2Cl)c1F` (stereo partly drawn) [F34, 2-chloro-5-((R,3R)-2,2-dichloro-3-(4-fluoro-3-(trifluoromethyl)phenyl)cyclopropane-1-carboxamido)-N-(3-(2-(ethylsulfinyl)propanamido)-2,4-difluorophenyl)benzamide], the pest or weed control at 50 µg/cm2 in data set [1] and in data set [2] was 50 to 100% throughout. Further, in data set [3], the “GPA (rating)” value was “B (More than 0-Less than 80)”. Further, in data set [4], the “YFM (rating)” value was “A (80-100)”.

As to `O=C(CCS(=O)(=O)C(F)(F)F)Nc1c(F)ccc(NC(=O)c2cc(NC(=O)[C@H]3[C@H](c4ccc(F)c(C(F)(F)F)c4)C3(Cl)Cl)ccc2Cl)c1F` [F46, 2-Chloro-5-((1R,3R)-2,2-dichloro-3-(4-fluoro-3-(trifluoromethyl)phenyl)cyclopropane-1-carboxamido)-N-(2,4-difluoro-3-(3-((trifluoromethyl)sulfonyl)propanamido)phenyl)benzamide], the pest or weed control at 50 µg/cm2 in data set [1] and in data set [2] was 50 to 100% throughout. The “YFM (rating)” value in data set [4] was “A (80-100)”.
